The values that follow come from patent publication US20120088791A1, “AMIDOBIPIPERIDINECARBOXYLATE M1 ALLOSTERIC AGONISTS, ANALOGS AND DERIVATIVES THEREOF, AND METHODS OF MAKING AND USING SAME” (VANDERBILT UNIVERSITY, priority 2009, published 2012).

One may read the EC50 as the midpoint of the concentration-response curve.

Where two headings read alike, the source gives them in different places.

Test [1] concerns the target T1, hM2 (Homo sapiens, UniProt P08172).
T1 construct: expressed in transfected cells; host or cells: CHO cells, also stably transfected with chimeric G-protein Gqi5
T1 sequence (P08172 1-466): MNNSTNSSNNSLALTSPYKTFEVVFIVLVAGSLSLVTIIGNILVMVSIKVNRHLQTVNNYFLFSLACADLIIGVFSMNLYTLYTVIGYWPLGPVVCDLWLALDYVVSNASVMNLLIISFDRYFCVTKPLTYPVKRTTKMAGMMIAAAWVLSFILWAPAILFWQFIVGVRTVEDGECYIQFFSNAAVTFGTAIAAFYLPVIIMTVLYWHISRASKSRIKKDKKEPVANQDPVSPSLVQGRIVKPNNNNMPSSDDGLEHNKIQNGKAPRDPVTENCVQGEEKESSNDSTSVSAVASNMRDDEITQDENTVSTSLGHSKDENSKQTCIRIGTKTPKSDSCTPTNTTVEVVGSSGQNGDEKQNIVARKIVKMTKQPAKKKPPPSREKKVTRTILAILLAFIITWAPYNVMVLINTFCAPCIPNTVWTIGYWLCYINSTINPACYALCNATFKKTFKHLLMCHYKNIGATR
As to the kind of experiment: Calcium mobilization assay, CHO cells stably expressing hM2-Gqi5. The conditions noted are these: selectivity for M1; read-out: potency (EC50) versus M2. The test is classed as cell-based. From the text:
(§1) Cell culture and transfections. Chinese hamster ovary (CHO-K1) cells stably expressing rat (r)M1 were purchased from the American Type Culture Collection and cultured according to their indicated protocol. CHO cells stably expressing human (h)M2, hM3, and hM5 were used and described previously (Levey et al., 1991); rM4 cDNA, provided by T. I. Bonner (National Institutes of Health, Bethesda, Md.), was used to stably transfect CHO-K1 cells purchased from the American Type Culture Collection using Lipofectamine2000. To make stable hM2 and rM4 cell lines for use in calcium mobilization assays, these cells also were stably transfected with a chimeric G-protein (Gqi5) using Lipofectamine 2000. M1, hM3, and hM5 cells were grown in Ham's F-12 medium containing 10% heat-inactivated fetal bovine serum (FBS), 20 mM HEPES, and 50 μg/ml G418 sulfate. hM2-Gqi5 cells were grown in the same medium also containing 500 μg/ml Hygromycin B. Stable rM4-Gqi5 cells were grown in DMEM containing 10% heat-inactivated FBS, 20 mM HEPES, 400 μg/ml G418 sulfate, and 500 μg/ml Hygromycin B. The rat M1 Y381A orthosteric mutant receptor cDNA was generated using the Quik-Change site-directed mutagenesis kit (Stratagene) and verified by sequencing. […]
(§2) Calcium mobilization assays. […] Calcium flux was measured over time as an increase in fluorescence (fold over basal) using the Flexstation plate reader (Molecular Devices).

The target in test [2] is T2, rM4 (Rattus norvegicus, UniProt P08485).
T2 construct: expressed in transfected cells; host or cells: CHO-K1 cells, also stably transfected with chimeric G-protein Gqi5
T2 sequence (P08485 1-478): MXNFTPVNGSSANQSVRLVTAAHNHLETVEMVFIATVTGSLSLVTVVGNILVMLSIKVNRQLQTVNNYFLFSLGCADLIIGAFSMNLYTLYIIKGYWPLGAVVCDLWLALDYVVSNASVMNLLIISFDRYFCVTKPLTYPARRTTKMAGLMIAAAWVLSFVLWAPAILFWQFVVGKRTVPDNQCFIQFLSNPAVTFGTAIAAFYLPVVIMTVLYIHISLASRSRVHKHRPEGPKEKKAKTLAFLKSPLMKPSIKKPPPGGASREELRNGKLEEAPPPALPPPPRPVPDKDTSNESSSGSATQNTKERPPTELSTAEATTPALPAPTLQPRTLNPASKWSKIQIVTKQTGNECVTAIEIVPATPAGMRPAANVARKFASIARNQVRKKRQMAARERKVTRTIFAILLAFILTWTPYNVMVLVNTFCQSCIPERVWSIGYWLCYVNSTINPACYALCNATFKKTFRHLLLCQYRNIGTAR
Put plainly: Calcium mobilization assay, CHO-K1 cells stably expressing rM4-Gqi5. The test is classed as cell-based. The conditions noted are these: selectivity for M1; read-out: potency (EC50) versus M4.
Text: as §1, §2
(A change in cytosolic calcium serves as a functional read-out for many receptors and channels.)

Test [3] concerns the target T3, hM5 (Homo sapiens, UniProt P08912).
T3 construct: expressed in transfected cells; host or cells: CHO cells
T3 sequence (P08912 1-532): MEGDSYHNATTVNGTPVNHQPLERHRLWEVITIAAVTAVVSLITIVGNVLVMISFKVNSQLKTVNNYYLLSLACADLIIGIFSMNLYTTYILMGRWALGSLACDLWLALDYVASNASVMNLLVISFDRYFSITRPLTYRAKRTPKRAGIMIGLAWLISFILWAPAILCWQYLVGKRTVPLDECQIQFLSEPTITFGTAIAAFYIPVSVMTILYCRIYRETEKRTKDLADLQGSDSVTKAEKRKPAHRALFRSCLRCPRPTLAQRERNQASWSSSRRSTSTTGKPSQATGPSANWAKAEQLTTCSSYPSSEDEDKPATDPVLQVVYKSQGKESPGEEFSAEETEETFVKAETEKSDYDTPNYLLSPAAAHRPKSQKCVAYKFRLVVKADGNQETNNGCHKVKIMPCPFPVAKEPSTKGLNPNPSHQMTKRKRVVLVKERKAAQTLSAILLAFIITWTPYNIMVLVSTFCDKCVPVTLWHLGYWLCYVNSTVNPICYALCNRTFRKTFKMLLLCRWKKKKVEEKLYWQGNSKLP
As to the kind of experiment: Calcium mobilization assay, CHO cells stably expressing hM5. The test is classed as cell-based. The conditions noted are these: selectivity for M1; read-out: potency (EC50) versus M5.
Text: as §1, §2

In test [4] the target is T4, rM1 (Rattus norvegicus, UniProt P08482).
T4 construct: host or cells: CHO-K1
T4 sequence (P08482 1-460): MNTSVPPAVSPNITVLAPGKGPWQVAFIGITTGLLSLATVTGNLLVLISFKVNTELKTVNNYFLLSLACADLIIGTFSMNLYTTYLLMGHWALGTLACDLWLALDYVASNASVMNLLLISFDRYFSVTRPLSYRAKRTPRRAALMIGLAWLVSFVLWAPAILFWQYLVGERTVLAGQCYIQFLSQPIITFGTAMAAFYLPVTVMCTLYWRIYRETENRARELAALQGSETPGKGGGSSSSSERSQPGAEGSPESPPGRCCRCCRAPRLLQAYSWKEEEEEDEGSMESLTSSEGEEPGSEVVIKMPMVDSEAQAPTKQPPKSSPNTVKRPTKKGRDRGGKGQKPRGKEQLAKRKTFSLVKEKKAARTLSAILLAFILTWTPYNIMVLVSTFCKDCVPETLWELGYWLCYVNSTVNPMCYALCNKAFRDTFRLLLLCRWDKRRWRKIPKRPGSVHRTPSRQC
As to the kind of experiment: Calcium mobilization assay, CHO-K1 cells stably expressing rM1. The test is classed as cell-based. The conditions noted are these: for Emax: RM1, read-out: Efficacy (% Max ACh); for EC50: read-out: Potency (EC50). The source says:
Cell culture and transfections. Chinese hamster ovary (CHO-K1) cells stably expressing rat (r)M1 were purchased from the American Type Culture Collection and cultured according to their indicated protocol. CHO cells stably expressing human (h)M2, hM3, and hM5 were used and described previously (Levey et al., 1991); rM4 cDNA, provided by T. I. Bonner (National Institutes of Health, Bethesda, Md.), was used to stably transfect CHO-K1 cells purchased from the American Type Culture Collection using Lipofectamine2000. To make stable hM2 and rM4 cell lines for use in calcium mobilization assays, these cells also were stably transfected with a chimeric G-protein (Gqi5) using Lipofectamine 2000. M1, hM3, and hM5 cells were grown in Ham's F-12 medium containing 10% heat-inactivated fetal bovine serum (FBS), 20 mM HEPES, and 50 μg/ml G418 sulfate. hM2-Gqi5 cells were grown in the same medium also containing 500 μg/ml Hygromycin B. Stable rM4-Gqi5 cells were grown in DMEM containing 10% heat-inactivated FBS, 20 mM HEPES, 400 μg/ml G418 sulfate, and 500 μg/ml Hygromycin B. The rat M1 Y381A orthosteric mutant receptor cDNA was generated using the Quik-Change site-directed mutagenesis kit (Stratagene) and verified by sequencing. CHO-K1 cells were stably transfected with this cDNA using Lipofectamine2000 and screened for expression based on calcium mobilization in response to the allosteric M1 agonist N-desmethylclozapine.
Calcium mobilization assays. For measurement of agonist-evoked increases in intracellular calcium, CHO-K1 cells stably expressing muscarinic receptors were plated in 100 μl of growth medium at 5×10^4 (rM1, hM3, and hM5) or 6×10^4 cells per well (rM1 Y381A, hM2, and rM4) in Costar 96-well black-walled, tissue culture (TC)-treated, clear-bottom plates (Fisher). Cells were incubated overnight at 37° C. and 5% CO2. The next day, medium was removed from the cells, and they were incubated with 50 μl of 2 μM Fluo-4 AM diluted in assay buffer [HBSS (Invitrogen) supplemented with 20 mM HEPES and 2.5 mM probenecid, pH 7.4] for 1 h at 37° C. Dye was removed and replaced with 45 μl of assay buffer. Agonists were diluted into assay buffer at a 2× concentration and applied to cells using the automated system at 19 s into the 130 s protocol. Calcium flux was measured over time as an increase in fluorescence (fold over basal) using the Flexstation plate reader (Molecular Devices).

Test [5] concerns the target T5, hM3 (Homo sapiens, UniProt P20309).
T5 construct: expressed in transfected cells; host or cells: CHO cells
As to the kind of experiment: Calcium mobilization assay, CHO cells stably expressing hM3. The test is classed as cell-based. The conditions noted are these: selectivity for M1; read-out: potency (EC50) versus M3.
Text: as §1, §2

The conditions of test [6]: multiple preclinical models; cited from earlier work.
The subject of test [7] is Aβ 1-40 and 1-42 production. The conditions noted are these: in vitro; cited from earlier work.
For test [8] the following is noted: preclinical and clinical studies; cited from earlier work.
Setting [9] is: Table 1, R-enantiomers, agonist-evoked calcium flux.

T5 sequence (P20309 whole entry): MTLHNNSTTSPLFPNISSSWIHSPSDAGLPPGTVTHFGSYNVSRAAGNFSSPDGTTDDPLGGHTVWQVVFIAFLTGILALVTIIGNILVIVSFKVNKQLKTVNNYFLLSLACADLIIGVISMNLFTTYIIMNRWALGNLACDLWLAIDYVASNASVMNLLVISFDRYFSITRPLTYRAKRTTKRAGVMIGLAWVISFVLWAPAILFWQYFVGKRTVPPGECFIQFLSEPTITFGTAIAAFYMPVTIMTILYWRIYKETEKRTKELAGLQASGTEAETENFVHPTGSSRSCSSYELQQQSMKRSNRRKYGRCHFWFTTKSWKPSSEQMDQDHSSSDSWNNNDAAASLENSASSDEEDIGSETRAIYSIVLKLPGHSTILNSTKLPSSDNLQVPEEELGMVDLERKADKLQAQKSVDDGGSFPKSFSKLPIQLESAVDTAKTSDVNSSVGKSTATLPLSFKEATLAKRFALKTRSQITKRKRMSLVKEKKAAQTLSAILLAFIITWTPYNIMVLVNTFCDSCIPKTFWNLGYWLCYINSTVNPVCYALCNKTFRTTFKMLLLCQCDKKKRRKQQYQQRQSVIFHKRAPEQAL

In the case of `CCOC(=O)N1CCC(N2CCC[C@@H](NC(=O)c3ccccc3C)C2)CC1` [(R)-ethyl 3-(2-methylbenzamido)-1,4′-bipiperidine-1′-carboxylate], the EC50 in test [1] was more than 50 µM; in test [2] it was more than 50 µM; in test [3] it was more than 50 µM; in test [4] (setting [9]) it was 0.088 µM; in test [5], more than 50 µM. In addition, in test [4] (Table 1, R-enantiomers), the Emax amounted to 96%.
On to `CCOC(=O)N1CCC(N2CCC[C@@H](NC(=O)c3ccccc3)C2)CC1` [(R)-ethyl 3-benzamido-1,4′-bipiperidine-1′-carboxylate], for which the EC50 in test [1] was more than 50 µM; in test [2], more than 50 µM; in test [3], more than 50 µM; in test [4] (setting [9]) it was 0.127 µM; in test [5] it was more than 50 µM. In test [4] (Table 1, R-enantiomers), the Emax was found to be 91%.
Take `CCOC(=O)N1CCC(N2CCC[C@H](NC(=O)c3ccc(C)cc3)C2)CC1` [(S)-ethyl 3-(4-methylbenzamido)-1,4′-bipiperidine-1′-carboxylate]: the EC50 in test [4] (Table 2, S-enantiomers) was more than 10 µM.
The same measure, in the same setting: the value for `CCOC(=O)N1CCC(N2CCC[C@H](NC(=O)C3CCCCC3)C2)CC1` [(S)-ethyl 3-(cyclohexanecarboxamido)-1,4′-bipiperidine-1′-carboxylate] was more than 10 µM.
Same read-out and setting: the value for `CCOC(=O)N1CCC(N2CCC[C@H](NC(=O)C3CCCC3)C2)CC1` [(S)-ethyl 3-(cyclopentanecarboxamido)-1,4′-bipiperidine-1′-carboxylate] was more than 10 µM.
On the same count and under the same terms, the value for `CCOC(=O)N1CCC(N2CCC[C@H](NC(=O)c3cccs3)C2)CC1` [(S)-ethyl 3-(thiophene-2-carboxamido)-1,4′-bipiperidine-1′-carboxylate] was more than 10 µM; that for `CCOC(=O)N1CCC(N2CCC[C@H](NC(=O)c3ccccc3)C2)CC1` [(S)-ethyl 3-benzamido-1,4′-bipiperidine-1′-carboxylate] was more than 10 µM.
`Cc1ccccc1CN1CCC(N2CCC(n3c(=O)[nH]c4ccccc43)CC2)CC1` [TBPB]: in test [6], the “efficacy in preclinical models of schizophrenia” value was “demonstrated efficacy”. In test [7], the “effect on Aβ 1-40 and 1-42 production” value is “decrease Aβ 1-40 and 1-42 production in vitro”.
Turning to `CCCCCCOc1nsnc1C1=CCCN(C)C1` [Xanomeline], the “efficacy with regard to positive, negative and cognitive symptoms” value in test [8] is given as “proved efficacious”.
